# Data taken from article PMC5131915, “Platinum(II) Iodido Complexes of 7-Azaindoles with Significant Antiproliferative Effects: An Old Story Revisited with Unexpected Outcomes” (PLoS ONE, 2016).
# What was measured:
# A2780 cells = test: Cellular accumulation of platinum (ICP-MS); assay type: cell-based, human; settings: 24 h treatment at IC50 concentration
# Description: The A2780 cells were seeded in 6-well culture plates (1×10^6 cells per well) and incubated overnight (37°C and 5% CO2 in a humidified incubator). […] The cells were washed with PBS (2 × 2 mL) after 24 h treatment, harvested by trypsin treatment, collected and centrifuged in PBS. The supernatants were discarded after centrifugation and pellets were digested in 500 μL of nitric acid (3 min at 150°C) using a microwave system Monowave300 (Anton Paar). Solutions were diluted with 4.5 mL of water and the platinum content was determined by ICP-MS. The obtained values were corrected for adsorption effects. The experiments were conducted in triplicate and the results are presented as arithmetic mean±SD.
# [1] = test system: cisplatin-sensitive HCT116 colon cancer cell line; design: method as in PMID 26226326; settings: cited from earlier work
# [2] = test system: cisplatin-resistant HCT116 colon cancer cell line; design: method as in PMID 26226326; settings: cited from earlier work
# [3] = Hydrophobicity studies (logP determination), octanol/water, ICP-MS; assay type: physicochemical; settings: octanol/water (0.2 M KI)
# Description: Complexes 4 and 6 (1 mmol) were ultrasonicated for 15 min in 10 mL of OSW, centrifuged and supernatants were collected. Aliquots (5 mL) of the obtained OSW solutions of complexes 4 and 6 were added to WSO (5 mL) and shaken for 2 h at ambient temperature. After that, the mixtures were centrifuged and aqueous layer was separated carefully. The platinum concentration was determined from OSW aliquots taken before ([Pt]OSWb) and after ([Pt]OSWa) partition by ICP-MS (ICP-MS spectrometer 7700x, Agilent) with the obtained values corrected for the adsorption effects. logP = log([Pt]WSO/[Pt]OSWa) equation was used for the partition coefficients calculation; [Pt]WSO = [Pt]OSWb−[Pt]OSWa. The experiments were conducted in triplicate.
# p53 = test: Ex vivo Western blot of tumour tissues, p53; assay type: in vivo, mice; settings: pooled tumour samples
# Description: Frozen tumour samples were homogenized by a bench blender IKA DI25 (IKA-Werke, Germany) in the presence of a lysis buffer [cOmplete Protease Inhibitor Cocktail (Roche, Germany), 50 mM Tris-HCl pH 7.5, 1 mM EGTA, 1 mM EDTA, 1 mM sodium orthovanadate, 50 mM sodium fluoride, 5 mM sodium pyrophosphate, 270 mM sucrose, 0.5% (v/v) Triton X-100]. Subsequently, the blended samples were centrifuged at 9.000 g at 4°C for 15 min. The supernatants were collected and the protein concentration was measured by the Brandford’s method using the Brandford reagent (Amresco, USA) according to the manufacturer’s manual. The measured samples were stored at -80°C for the following experiments.
# The expression of caspase 3, MCL-1, p53, and β-actin as loading control were evaluated by Western blot analysis and immunodetection. Lysates were mixed with a denaturing loading dye [250 mM Tris-HCl pH 6.8, 5% (v/v) β-mercaptoethanol, 10% (w/v) sodium dodecyl sulfate, 30% (v/v) glycerol, 0.04% (w/v) bromophenol blue], heated for 5 min at 70°C. To eliminate intra-species variability, and to obtain the same amount of proteins from all experimental groups, all samples from one group of animals were pooled together and loaded onto a 15% polyacrylamide denaturing gel. The final protein amount was 50 μg per well. After protein separation in the gel, they were transferred on the Immun-Blot polyvinylidene difluoride membrane 0.2 μm (Bio-Rad, USA). Then, the membrane was blocked by 5% (w/v) BSA in TBST [10 mM Tris-HCl pH 7.5, 150 mM NaCl, 0.1% (v/v) Tween-20]. […] HRP was detected by Clarity Western ECL Substrate (Bio-Rad, USA) using chemiluminescent documentation system Syngene PXi-4 (UK).
# [4] = Hydrolytic stability by 1H NMR; assay type: physicochemical; settings: 20% DMF-d7/80% D2O, after 48 h
Structure (SMILES),cellular accumulation (A2780 cells) [pmol Pt/10^6 A2780 cells],IC50 [1] [µM],IC50 [2] [µM],logP [3],p53 level in tumour tissue (p53),fraction of complex hydrolyzed [4] [%]
"N.N.[Cl][Pt][Cl] [Cisplatin, cisplatin, reference compound]",535±16,7.6,22,–,–,–
"Brc1cc[n+]([Pt-2]([I])([I])[n+]2ccc(Br)c3cc[nH]c32)c2[nH]ccc12 [Complex 6, cis-[Pt(4Braza)2I2]]",598±97,–,–,–0.07,did not affect,~10
"Cc1cc2c(Cl)cc[n+]([Pt-2]([I])([I])[n+]3ccc(Cl)c4cc(C)[nH]c43)c2[nH]1 [Complex 8, cis-[PtI2(2Me4Claza)2]]",–,–,–,–,attenuated,–
